≈ marks a conversion by molar mass, not a printed value. Like-named read-outs stand apart in the source and are kept apart here.
What was measured:
[1] = test system: Staphylococcus aureus ATCC BAA-976; experiment: MIC, broth microdilution, MDR/BPSA reference strain; assay type: cell-based; settings: ATCCBAA976; Staphylococcus aureus ATCC BAA-976; read-out: MIC MDR/BPSA
How it was run: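 Compounds tested as free bases dissolved in DMSO (1 mg/mL stock); determinations done twice; linezolid as positive control.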

[2] = test system: clinical MDR Staphylococcus epidermidis isolates; experiment: MIC, broth microdilution, 81 clinical MDR strains; assay type: cell-based; settings: Staphylococcus epidermidis
How it was run: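 MICs were determined by twofold broth microdilution in cation-adjusted Mueller-Hinton II broth per EUCAST, over 50–0.1 µg/mL, in duplicate. Compounds were tested as free bases dissolved in DMSO; MIC50 and MIC90 were derived across the 81 clinical MDR S. epidermidis strains.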

`O=C(Nc1cccc(Cl)c1)NC1CCN(CCC(Oc2ccc(C(F)(F)F)cc2)c2cccs2)CC1` (stereo not drawn) [Compound 25] gave an MIC [1] of 1.6 µg/mL (≈ 2.97 µM), an MIC ([2]; 81 clinical strains (Table S5), read-out: Average of MIC) of 1.84 µg/mL (≈ 3.42 µM) and an MIC ([2]; clinical strain 1 (Table S2), read-out: MIC) of 0.8 µg/mL (≈ 1.49 µM). It also gave an MIC ([2]; clinical strain 1 (Table S5), read-out: MIC) of 1.6 µg/mL (≈ 2.97 µM), an MIC ([2]; clinical strain 2 (Table S2), read-out: MIC) of 0.8 µg/mL (≈ 1.49 µM) and an MIC ([2]; clinical strain 2 (Table S5), read-out: MIC) of 1.6 µg/mL (≈ 2.97 µM). It also gave an MIC ([2]; clinical strain 3 (Table S2), read-out: MIC) of 0.8 µg/mL (≈ 1.49 µM), an MIC ([2]; clinical strain 3 (Table S5), read-out: MIC) of 0.8 µg/mL (≈ 1.49 µM) and an MIC ([2]; clinical strain 4 (Table S2), read-out: MIC) of 3.12 µg/mL (≈ 5.81 µM). It also gave an MIC ([2]; clinical strain 4 (Table S5), read-out: MIC) of 1.6 µg/mL (≈ 2.97 µM), an MIC ([2]; clinical strain 5 (Table S2), read-out: MIC) of 0.8 µg/mL (≈ 1.49 µM) and an MIC ([2]; clinical strain 6 (Table S2), read-out: MIC) of 1.6 µg/mL (≈ 2.97 µM). It also gave an MIC ([2]; clinical strain 6 (Table S5), read-out: MIC) of 1.6 µg/mL (≈ 2.97 µM), an MIC ([2]; clinical strain 7 (Table S2), read-out: MIC) of 1.6 µg/mL (≈ 2.97 µM) and an MIC ([2]; clinical strain 7 (Table S5), read-out: MIC) of 1.6 µg/mL (≈ 2.97 µM). It also gave an MIC ([2]; clinical strain 8 (Table S2), read-out: MIC) of 1.6 µg/mL (≈ 2.97 µM), an MIC ([2]; clinical strain 8 (Table S5), read-out: MIC) of 0.8 µg/mL (≈ 1.49 µM) and an MIC ([2]; clinical strain 9 (Table S2), read-out: MIC) of 0.8 µg/mL (≈ 1.49 µM). It also gave an MIC ([2]; clinical strain 9 (Table S5), read-out: MIC) of 3.12 µg/mL (≈ 5.81 µM), an MIC ([2]; clinical strain 10 (Table S2), read-out: MIC) of 3.12 µg/mL (≈ 5.81 µM) and an MIC ([2]; clinical strain 10 (Table S5), read-out: MIC) of 3.12 µg/mL (≈ 5.81 µM). The MIC ([2]; clinical strain 11 (Table S2), read-out: MIC) was 1.6 µg/mL (≈ 2.97 µM), the MIC ([2]; clinical strain 11 (Table S5), read-out: MIC) was 1.6 µg/mL (≈ 2.97 µM) and the MIC ([2]; clinical strain 12 (Table S2), read-out: MIC) was 3.12 µg/mL (≈ 5.81 µM). The MIC ([2]; clinical strain 12 (Table S5), read-out: MIC) was 1.6 µg/mL (≈ 2.97 µM), the MIC ([2]; clinical strain 13 (Table S2), read-out: MIC) was 1.6 µg/mL (≈ 2.97 µM) and the MIC ([2]; clinical strain 13 (Table S5), read-out: MIC) was 1.6 µg/mL (≈ 2.97 µM). The MIC ([2]; clinical strain 14 (Table S2), read-out: MIC) was 3.12 µg/mL (≈ 5.81 µM), the MIC ([2]; clinical strain 14 (Table S5), read-out: MIC) was 1.6 µg/mL (≈ 2.97 µM) and the MIC ([2]; clinical strain 15 (Table S2), read-out: MIC) was 1.6 µg/mL (≈ 2.97 µM). It also gave an MIC ([2]; clinical strain 15 (Table S5), read-out: MIC) of 3.12 µg/mL (≈ 5.81 µM), an MIC ([2]; clinical strain 16 (Table S2), read-out: MIC) of 3.12 µg/mL (≈ 5.81 µM) and an MIC ([2]; clinical strain 16 (Table S5), read-out: MIC) of 1.6 µg/mL (≈ 2.97 µM). It also gave an MIC ([2]; clinical strain 17 (Table S2), read-out: MIC) of 1.6 µg/mL (≈ 2.97 µM), an MIC ([2]; clinical strain 17 (Table S5), read-out: MIC) of 0.1 µg/mL (≈ 0.186 µM) and an MIC ([2]; clinical strain 18 (Table S2), read-out: MIC) of 1.6 µg/mL (≈ 2.97 µM). It also gave an MIC ([2]; clinical strain 18 (Table S5), read-out: MIC) of 3.12 µg/mL (≈ 5.81 µM), an MIC ([2]; clinical strain 19 (Table S2), read-out: MIC) of 1.6 µg/mL (≈ 2.97 µM) and an MIC ([2]; clinical strain 19 (Table S5), read-out: MIC) of 0.8 µg/mL (≈ 1.49 µM). The MIC ([2]; clinical strain 20 (Table S2), read-out: MIC) was 0.1 µg/mL (≈ 0.186 µM), the MIC ([2]; clinical strain 20 (Table S5), read-out: MIC) was 1.6 µg/mL (≈ 2.97 µM) and the MIC ([2]; clinical strain 21 (Table S2), read-out: MIC) was 1.6 µg/mL (≈ 2.97 µM). The MIC ([2]; clinical strain 21 (Table S5), read-out: MIC) was 1.6 µg/mL (≈ 2.97 µM), the MIC ([2]; clinical strain 22 (Table S2), read-out: MIC) was 1.6 µg/mL (≈ 2.97 µM) and the MIC ([2]; clinical strain 22 (Table S5), read-out: MIC) was 0.8 µg/mL (≈ 1.49 µM). For the same compound, the MIC ([2]; clinical strain 23 (Table S2), read-out: MIC) was 1.6 µg/mL (≈ 2.97 µM), the MIC ([2]; clinical strain 23 (Table S5), read-out: MIC) was 1.6 µg/mL (≈ 2.97 µM) and the MIC ([2]; clinical strain 24 (Table S2), read-out: MIC) was 0.8 µg/mL (≈ 1.49 µM). For the same compound, the MIC ([2]; clinical strain 24 (Table S5), read-out: MIC) was 1.6 µg/mL (≈ 2.97 µM), the MIC ([2]; clinical strain 25 (Table S2), read-out: MIC) was 3.12 µg/mL (≈ 5.81 µM) and the MIC ([2]; clinical strain 25 (Table S5), read-out: MIC) was 0.8 µg/mL (≈ 1.49 µM). It also gave an MIC ([2]; clinical strain 26 (Table S2), read-out: MIC) of 1.6 µg/mL (≈ 2.97 µM), an MIC ([2]; clinical strain 26 (Table S5), read-out: MIC) of 3.12 µg/mL (≈ 5.81 µM) and an MIC ([2]; clinical strain 27 (Table S2), read-out: MIC) of 0.4 µg/mL (≈ 0.743 µM). The MIC ([2]; clinical strain 27 (Table S5), read-out: MIC) was 3.12 µg/mL (≈ 5.81 µM), the MIC ([2]; clinical strain 28 (Table S2), read-out: MIC) was 0.8 µg/mL (≈ 1.49 µM) and the MIC ([2]; clinical strain 28 (Table S5), read-out: MIC) was 0.8 µg/mL (≈ 1.49 µM). For the same compound, the MIC ([2]; clinical strain 29 (Table S2), read-out: MIC) was 1.6 µg/mL (≈ 2.97 µM), the MIC ([2]; clinical strain 29 (Table S5), read-out: MIC) was 0.4 µg/mL (≈ 0.743 µM) and the MIC ([2]; clinical strain 30 (Table S2), read-out: MIC) was 3.12 µg/mL (≈ 5.81 µM). For the same compound, the MIC ([2]; clinical strain 30 (Table S5), read-out: MIC) was 0.8 µg/mL (≈ 1.49 µM), the MIC ([2]; clinical strain 31 (Table S2), read-out: MIC) was 0.8 µg/mL (≈ 1.49 µM) and the MIC ([2]; clinical strain 31 (Table S5), read-out: MIC) was 1.6 µg/mL (≈ 2.97 µM). It also gave an MIC ([2]; clinical strain 32 (Table S2), read-out: MIC) of 1.6 µg/mL (≈ 2.97 µM), an MIC ([2]; clinical strain 32 (Table S5), read-out: MIC) of 1.6 µg/mL (≈ 2.97 µM) and an MIC ([2]; clinical strain 33 (Table S2), read-out: MIC) of 3.12 µg/mL (≈ 5.81 µM). It also gave an MIC ([2]; clinical strain 33 (Table S5), read-out: MIC) of 1.6 µg/mL (≈ 2.97 µM), an MIC ([2]; clinical strain 34 (Table S2), read-out: MIC) of 1.6 µg/mL (≈ 2.97 µM) and an MIC ([2]; clinical strain 34 (Table S5), read-out: MIC) of 1.6 µg/mL (≈ 2.97 µM). The MIC ([2]; clinical strain 35 (Table S2), read-out: MIC) was 1.6 µg/mL (≈ 2.97 µM), the MIC ([2]; clinical strain 35 (Table S5), read-out: MIC) was 1.6 µg/mL (≈ 2.97 µM) and the MIC ([2]; clinical strain 36 (Table S2), read-out: MIC) was 0.8 µg/mL (≈ 1.49 µM). It also gave an MIC ([2]; clinical strain 36 (Table S5), read-out: MIC) of 1.6 µg/mL (≈ 2.97 µM), an MIC ([2]; clinical strain 37 (Table S2), read-out: MIC) of 1.6 µg/mL (≈ 2.97 µM) and an MIC ([2]; clinical strain 37 (Table S5), read-out: MIC) of 1.6 µg/mL (≈ 2.97 µM). For the same compound, the MIC ([2]; clinical strain 38 (Table S2), read-out: MIC) was 1.6 µg/mL (≈ 2.97 µM), the MIC ([2]; clinical strain 38 (Table S5), read-out: MIC) was 1.6 µg/mL (≈ 2.97 µM) and the MIC ([2]; clinical strain 39 (Table S2), read-out: MIC) was 1.6 µg/mL (≈ 2.97 µM). It also gave an MIC ([2]; clinical strain 39 (Table S5), read-out: MIC) of 0.8 µg/mL (≈ 1.49 µM), an MIC ([2]; clinical strain 40 (Table S2), read-out: MIC) of 1.6 µg/mL (≈ 2.97 µM) and an MIC ([2]; clinical strain 40 (Table S5), read-out: MIC) of 0.8 µg/mL (≈ 1.49 µM). For the same compound, the MIC ([2]; clinical strain 41 (Table S2), read-out: MIC) was 0.8 µg/mL (≈ 1.49 µM), the MIC ([2]; clinical strain 41 (Table S5), read-out: MIC) was 1.6 µg/mL (≈ 2.97 µM) and the MIC ([2]; clinical strain 42 (Table S2), read-out: MIC) was 0.8 µg/mL (≈ 1.49 µM).
